Reference: patent publication US20250353848A1, “HETEROCYCLIC PAD4 INHIBITORS” (Celgene Corporation, priority 2022, published 2025)

Assays:
hPAD4 enzyme [1] = biological target: T1, hPAD4 enzyme (Homo sapiens, UniProt Q9UM07); assay: RFMS Assay 2 (rapid-fire mass spectrum PAD4 inhibition assay, peptide substrate); assay type: biochemical; details: 35 nM recombinant human PAD4, substrate TSTGGRQGSHH, room temperature for 30 minutes; read-out: human PAD4 (hPAD4) IC50, RFMS Assay 2
Protocol: Stock compounds were dissolved and stored in 100% DMSO. Compound solutions were prepared via serial dilution at 3-fold intervals in DMSO with top compound concentration at […] in each assay. 0.25 μl of compound solution was transferred from the compound plate to the assay plate by using an acoustic dispenser. Final assay conditions: • Total reaction volume: 25 μl • Assay buffer: […] pH 7.4, 200 mM NaCl, 2 mM CaCl2, 5 mM DTT • 35 nM recombinant human PAD4 • 500 µM TSTGGRQGSHH (SEQ ID NO: 1) • 1.2% DMSO • Stop solution: 10% formic acid
Reaction mixtures were incubated at room temperature for 30 minutes. 10 μl each of the reaction mixtures was then mixed with 40 μl of 10% formic acid in a microtiter plate. The plate was frozen at −80° C. before shipping out on dry ice for RapidFire mass spectroscopy analysis.
Thawed samples were loaded onto the Rapid Fire 300 system (Agilent) wherein they were first sipped for 250 ms and then loaded onto a Agilent “C” (C18) cartridge using a mobile phase of water containing 0.09% formic acid/0.01% trifluoroacetic acid for 3000 ms desalting flowing at a rate of 1.5 ml/min. Once the samples were loaded and washed, a mobile phase of acetonitrile containing 0.09% formic acid/0.01% trifluoroacetic acid was used to elute the samples directly onto a Sciex API4000 triple quadrupole mass spectrometer for 3000 ms at a flow rate of 1.25 ml/min.
MRM transitions for substrate and product were monitored in positive ESI mode at m/z=562.3/969.7 and m/z=562.8/541.3 respectively. The dwell time for each transition was set at 100 ms, and the ESI voltage was used at 5500 with a source temperature of 650° C. Extracted ion peaks for each transition were integrated using the Rapid Fire Integrator software.

hPAD4 enzyme [2] = biological target: T1, hPAD4 enzyme; assay: RFMS Assay 1 (rapid-fire mass spectrum PAD4 inhibition assay, BAEE substrate); assay type: biochemical; details: 5 nM hPAD4 enzyme, 250 μM BAEE, 30 mins compound and enzyme preincubation at 37° C., 90 min enzyme/substrate reaction
In short: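 Human PAD4 (5 nM) preincubated 30 min at 37 °C with compound (top 50 μM, 0.5% DMSO), then 250 μM BAEE for 90 min at 37 °C in pH 7.5 HEPES with 50 μM calcium, 5 μM TPEN, 1 mM DTT. Product derivatized with phenyl glyoxal; citrulline product quantified by RapidFire MS/MS MRM, normalized to internal standard.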

T1 sequence (Q9UM07 whole entry): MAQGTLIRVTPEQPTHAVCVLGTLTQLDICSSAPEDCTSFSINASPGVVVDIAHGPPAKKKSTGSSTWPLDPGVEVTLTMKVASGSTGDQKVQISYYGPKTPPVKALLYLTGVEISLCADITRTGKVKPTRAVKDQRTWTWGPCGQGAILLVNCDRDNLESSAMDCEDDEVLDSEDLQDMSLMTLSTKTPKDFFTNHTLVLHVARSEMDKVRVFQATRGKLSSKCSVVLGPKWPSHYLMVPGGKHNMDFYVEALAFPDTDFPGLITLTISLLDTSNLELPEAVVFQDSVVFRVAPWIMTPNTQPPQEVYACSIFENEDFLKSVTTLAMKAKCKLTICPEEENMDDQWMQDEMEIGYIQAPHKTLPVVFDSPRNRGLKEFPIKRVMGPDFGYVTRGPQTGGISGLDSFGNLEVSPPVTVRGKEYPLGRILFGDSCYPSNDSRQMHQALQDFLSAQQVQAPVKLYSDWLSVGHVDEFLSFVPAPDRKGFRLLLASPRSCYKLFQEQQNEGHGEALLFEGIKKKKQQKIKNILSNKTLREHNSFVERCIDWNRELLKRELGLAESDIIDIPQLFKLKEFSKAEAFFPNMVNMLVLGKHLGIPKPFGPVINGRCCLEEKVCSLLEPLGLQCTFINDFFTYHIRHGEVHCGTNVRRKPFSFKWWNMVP

SMILES	IC50 (hPAD4 enzyme [1]) [nM]	IC50 (hPAD4 enzyme [2]) [nM]
Cc1nnc(CCOc2cccc3cc(-c4nc5cc6c(nc5n4C)CCN(C[C@H](N)CF)C6=O)n(CC4CC4)c23)o1 [Example 54, (S)-7-(2-amino-3-fluoropropyl)-2-(1-(cyclopropylmethyl)-7-(2-(5-methyl-1,3,4-oxadiazol-2-yl)ethoxy)-1H-indol-2-yl)-3-methyl-3,5,6,7-tetrahydro-8H-imidazo[4,5-b][1,6]naphthyridin-8-one]	11 to 100	11 to 100
Cn1c(-c2cc3cccc(OC[C@H]4CNC(=O)C4)c3n2CC2CC2)nc2cc3c(nc21)CCN(C[C@H](N)CF)C3=O [Example 60, 7-((S)-2-amino-3-fluoropropyl)-2-(1-(cyclopropylmethyl)-7-(((R)-5-oxopyrrolidin-3-yl)methoxy)-1H-indol-2-yl)-3-methyl-3,5,6,7-tetrahydro-8H-imidazo[4,5-b][1,6]naphthyridin-8-one]	101 to 500	
Cn1c(-c2cc3ccnc(OC[C@@H]4CNC(=O)C4)c3n2CC2CC2)nc2cc3c(nc21)CCN(C[C@H](N)CF)C3=O [Example 82, 7-((S)-2-amino-3-fluoropropyl)-2-(1-(cyclopropylmethyl)-7-(((S)-5-oxopyrrolidin-3-yl)methoxy)-1H-pyrrolo[2,3-c]pyridin-2-yl)-3-methyl-3,5,6,7-tetrahydro-8H-imidazo[4,5-b][1,6]naphthyridin-8-one]	101 to 500	101 to 500
COc1cccc2cc(-c3nc4cc5c(nc4n3C)CCN(C[C@H](N)CF)C5=O)n(Cc3ncc(C)o3)c12 [Example 11, (S)-7-(2-amino-3-fluoropropyl)-2-(7-methoxy-1-((5-methyloxazol-2-yl)methyl)-1H-indol-2-yl)-3-methyl-3,5,6,7-tetrahydro-8H-imidazo[4,5-b][1,6]naphthyridin-8-one]	101 to 500	101 to 500
Cn1c(-c2cc3cccc(OC(F)Cn4cncc4F)c3n2CC2CC2)nc2cc3c(nc21)CCN(C[C@H](N)CF)C3=O (single isomer, unassigned) [Example 75b]	11 to 100	≤ 10
C[C@@H](N)CN1CCc2nc3c(cc2C1=O)nc(-c1cc2ccccc2n1CC1CC1)n3C [Example 24, (R)-7-(2-aminopropyl)-2-(1-(cyclopropylmethyl)-1H-indol-2-yl)-3-methyl-3,5,6,7-tetrahydro-8H-imidazo[4,5-b][1,6]naphthyridin-8-one]	501 to 1000	11 to 100
COc1c(F)ccc2cc(-c3nc4cc5c(nc4n3C)CCN(C[C@H](N)CF)C5=O)n(Cc3ccno3)c12 [Example 23, (S)-7-(2-amino-3-fluoropropyl)-2-(6-fluoro-1-(isoxazol-5-ylmethyl)-7-methoxy-1H-indol-2-yl)-3-methyl-3,5,6,7-tetrahydro-8H-imidazo[4,5-b][1,6]naphthyridin-8-one]	501 to 1000	11 to 100
COCC(=O)N1CCC(c2cccc3cc(-c4nc5cc6c(nc5n4C)CCN(C[C@H](N)CF)C6=O)n(CC4CC4)c23)CC1 [Example 30, (S)-7-(2-amino-3-fluoropropyl)-2-(1-(cyclopropylmethyl)-7-(1-(2-methoxyacetyl)piperidin-4-yl)-1H-indol-2-yl)-3-methyl-3,5,6,7-tetrahydro-8H-imidazo[4,5-b][1,6]naphthyridin-8-one]	≤ 10	11 to 100
Cn1c(-c2cc3cccc(OCCn4ccnc4)c3n2CC2CC2)nc2cc3c(nc21)CCN(C[C@H](N)CF)C3=O [Example 44, (S)-2-(7-(2-(1H-imidazol-1-yl)ethoxy)-1-(cyclopropylmethyl)-1H-indol-2-yl)-7-(2-amino-3-fluoropropyl)-3-methyl-3,5,6,7-tetrahydro-8H-imidazo[4,5-b][1,6]naphthyridin-8-one]	11 to 100	≤ 10
[2H]C([2H])(Oc1cccc2cc(-c3nc4cc5c(nc4n3C)CCN(C[C@H](N)CF)C5=O)n(CC3CC3)c12)C([2H])([2H])n1ccnc1 [Example 95, (S)-2-(7-(2-(1H-imidazol-1-yl)ethoxy-1,1,2,2-d4)-1-(cyclopropylmethyl)-1H-indol-2-yl)-7-(2-amino-3-fluoropropyl)-3-methyl-3,5,6,7-tetrahydro-8H-imidazo[4,5-b][1,6]naphthyridin-8-one]	11 to 100	≤ 10
CC(Cc1cnco1)Oc1cc(F)cc2cc(-c3nc4cc5c(nc4n3C)CCN(C[C@H](N)CF)C5=O)n(CC3CC3)c12 (single isomer, unassigned) [Example 65b]	101 to 500	
Cn1c(-c2cc3cccc(OCC4CC(=O)NC4(C)C)c3n2CC2CC2)nc2cc3c(nc21)CCN(C[C@H](N)CF)C3=O (stereo partly drawn) [Example 35, 7-((S)-2-amino-3-fluoropropyl)-2-(1-(cyclopropylmethyl)-7-((2,2-dimethyl-5-oxopyrrolidin-3-yl)methoxy)-1H-indol-2-yl)-3-methyl-3,5,6,7-tetrahydro-8H-imidazo[4,5-b][1,6]naphthyridin-8-one]	501 to 1000	
COc1cccc2cc(-c3nc4cc5c(nc4n3C)CCN(C[C@H](N)CF)C5=O)n(Cc3nc(C)co3)c12 [Example 13, (S)-7-(2-amino-3-fluoropropyl)-2-(7-methoxy-1-((4-methyloxazol-2-yl)methyl)-1H-indol-2-yl)-3-methyl-3,5,6,7-tetrahydro-8H-imidazo[4,5-b][1,6]naphthyridin-8-one]	501 to 1000	
COc1cccc2cc(-c3nc4cc5c(nc4n3C)CCN(C[C@H](N)CF)C5=O)n(Cc3ncc(C)s3)c12 [Example 10, (S)-7-(2-amino-3-fluoropropyl)-2-(7-methoxy-1-((5-methylthiazol-2-yl)methyl)-1H-indol-2-yl)-3-methyl-3,5,6,7-tetrahydro-8H-imidazo[4,5-b][1,6]naphthyridin-8-one]	> 1000	
COc1ccc2cc(-c3nc4cc5c(nc4n3C)CCN(C[C@H](N)CF)C5=O)n(CC3CC3)c2c1 [Example 18, (S)-7-(2-amino-3-fluoropropyl)-2-(1-(cyclopropylmethyl)-6-methoxy-1H-indol-2-yl)-3-methyl-3,5,6,7-tetrahydro-8H-imidazo[4,5-b][1,6]naphthyridin-8-one]	501 to 1000	
Cn1c(-c2cc3cccc(OC[C@@H]4CCC(=O)NC4)c3n2CC2CC2)nc2cc3c(nc21)CCN(C[C@H](N)CF)C3=O [Example 37, 7-((S)-2-amino-3-fluoropropyl)-2-(1-(cyclopropylmethyl)-7-(((R)-6-oxopiperidin-3-yl)methoxy)-1H-indol-2-yl)-3-methyl-3,5,6,7-tetrahydro-8H-imidazo[4,5-b][1,6]naphthyridin-8-one]	501 to 1000	
COc1cccc2cc(-c3nc4cc5c(nc4n3C)CCN(C[C@H](N)CF)C5=O)n(Cc3oncc3C)c12 [Example 9, (S)-7-(2-amino-3-fluoropropyl)-2-(7-methoxy-1-((4-methylisoxazol-5-yl)methyl)-1H-indol-2-yl)-3-methyl-3,5,6,7-tetrahydro-8H-imidazo[4,5-b][1,6]naphthyridin-8-one]	101 to 500	
CC(Cc1cnco1)Oc1cc(F)cc2cc(-c3nc4cc5c(nc4n3C)CCN(C[C@H](N)CF)C5=O)n(CC3CC3)c12 (single isomer, unassigned) [Example 64]	101 to 500	
Cn1c(-c2cc3cccc(OC[C@H]4CCC(=O)NC4)c3n2CC2CC2)nc2cc3c(nc21)CCN(C[C@H](N)CF)C3=O [Example 36, 7-((S)-2-amino-3-fluoropropyl)-2-(1-(cyclopropylmethyl)-7-(((S)-6-oxopiperidin-3-yl)methoxy)-1H-indol-2-yl)-3-methyl-3,5,6,7-tetrahydro-8H-imidazo[4,5-b][1,6]naphthyridin-8-one]	> 1000	
Cc1cccc2cc(-c3nc4cc5c(nc4n3C)CCN(C[C@H](N)CF)C5=O)n(Cc3ccno3)c12 [Example 17, (S)-7-(2-amino-3-fluoropropyl)-2-(1-(isoxazol-5-ylmethyl)-7-methyl-1H-indol-2-yl)-3-methyl-3,5,6,7-tetrahydro-8H-imidazo[4,5-b][1,6]naphthyridin-8-one]	501 to 1000	
COC(=O)N1CC[C@@H](Oc2cccc3cc(-c4nc5cc6c(nc5n4C)CCN(C[C@H](N)CF)C6=O)n(CC4CC4)c23)C1 [Example 40, methyl (R)-3-((2-(7-((S)-2-amino-3-fluoropropyl)-3-methyl-8-oxo-5,6,7,8-tetrahydro-3H-imidazo[4,5-b][1,6]naphthyridin-2-yl)-1-(cyclopropylmethyl)-1H-indol-7-yl)oxy)pyrrolidine-1-carboxylate]		11 to 100
